Reference: patent US11130769B2 (Prelude Therapeutics Incorporated, priority 2018, dated 2021)
Where “and” joins values, the source holds several entries; their conditions need not be identical. Equal entries are not always repeated. Where two headings read alike, the source gives them in different places.

Assays:
H929 cells = assay: Cell viability assay (H929 10 FBS); type: cell-based; conditions: Homo sapiens, NCI-H929, 24 hours, read-out: H929_10FBS IC50
In short: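 H929 cells, 4000/well, in RPMI 1640 with 10% FBS, sodium pyruvate, HEPES and glucose were exposed to compound 24 h at 37 °C. Viability read as luminescence after 30-60 min at RT with CellTiter-Glo or ATPlite 1 Step.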

MCL-1 = MCL-1 (Homo sapiens (Human), UniProt Q07820); assay: Cell free Mcl-1:Bim affinity assay (fluorescence polarization competition); type: binding; conditions: 15 nM MCL-1, 5 nM FITC-Bim, 1 hour at room temperature; class symbols; read-out: BIM_Ki
Sequence of MCL-1 (Q07820 whole entry): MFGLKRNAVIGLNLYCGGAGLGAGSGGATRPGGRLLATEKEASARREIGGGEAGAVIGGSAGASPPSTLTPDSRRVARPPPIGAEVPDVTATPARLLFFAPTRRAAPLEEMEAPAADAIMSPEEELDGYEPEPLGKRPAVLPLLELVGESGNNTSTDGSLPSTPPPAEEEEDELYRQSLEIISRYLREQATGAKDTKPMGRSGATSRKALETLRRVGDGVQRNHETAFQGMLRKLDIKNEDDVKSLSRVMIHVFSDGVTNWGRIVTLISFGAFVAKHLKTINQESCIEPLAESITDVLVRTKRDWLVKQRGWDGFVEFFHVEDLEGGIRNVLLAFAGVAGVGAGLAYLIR
In short: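 Compounds competed with FITC-labelled Bim peptide (5 nM) for MCL-1 (15 nM) in HEPES/NaCl buffer with 1% DMSO, 1 h at room temperature. Fluorescence polarization (535 nm emission) gave % inhibition versus DMSO and positive controls; IC50 from 10-point curves, converted to Ki by the Nikolovska-Coleska equation.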

[1] = not given; remark: listed apart in the source

SMILES | IC50 (H929 cells) [nM] | Ki (MCL-1) [nM] | other results
C[C@H]1C(=O)NS(=O)(=O)c2ccc3c(c2)N(C[C@@H]2CC[C@H]2COCC(=O)N1C)C[C@@]1(CCCc2cc(Cl)ccc21)CO3 [Example 196, (3R,6R,12S,22S)-6′-Chloro-11,12-dimethyl-15,15-dioxo-spiro[8,20-dioxa-15-thia-1,11,14-triazatetracyclo[14.7.2.03,6.019,24]pentacosa-16,18,24-triene-22,1′-tetralin]-10,13-dione] | > 1000 | 1 to 100 | ring closure, yield after HPLC (from CN[C@@H](C)C(=O)NS(=O)(=O)c1ccc2c(c1)N(C[C@@H]1CC[C@H]1COCC(=O)O)C[C@@]1(CCCc3cc(Cl)ccc31)CO2, amide bond, 16-membered ring, HATU/DIEA, DMF, 20.0 mM, 20.0 °C, 1.0 h): 24.6%
CO[C@@H]1/C=C/CCNC(=O)NS(=O)(=O)c2ccc3c(c2)N(C[C@@H]2CC[C@H]21)C[C@@]1(CCCc2cc(Cl)ccc21)CO3 [Example 106, (3R,6R,7R,8E,22S)-6′-Chloro-7-methoxy-15,15-dioxo-spiro[20-oxa-15-thia-1,12,14-triazatetracyclo[14.7.2.03,6.019,24]pentacosa-8,16,18,24-tetraene-22,1′-tetralin]-13-one] | < 1000 | 1 to 100 | ring closure, yield after HPLC (from C=CCCNC(=O)NS(=O)(=O)c1ccc2c(c1)N(C[C@@H]1CC[C@H]1[C@@H](C=C)OC)C[C@@]1(CCCc3cc(Cl)ccc31)CO2, rcm bond, 16-membered ring, Hoveyda-Grubbs II, DCE, 1.5 mM, 80.0 °C, 16.0 h): 43%
CO[C@@H]1C=CCNC(=O)NS(=O)(=O)c2ccc3c(c2)N(C[C@@H]2CC[C@H]21)C[C@@]1(CCCc2cc(Cl)ccc21)CO3 |  |  | ring closure, yield after HPLC (from C=CCNC(=O)NS(=O)(=O)c1ccc2c(c1)N(C[C@@H]1CC[C@H]1[C@@H](C=C)OC)C[C@@]1(CCCc3cc(Cl)ccc31)CO2, rcm bond, 15-membered ring, Hoveyda-Grubbs II, DCE, 1.0 mM, 80.0 °C, 16.0 h): 7.2% and 31%
COC(=O)N[C@@H]1/C=C/COC(C)(C)C(=O)NS(=O)(=O)c2ccc3c(c2)N(C[C@@H]2CC[C@H]21)C[C@@]1(CCCc2cc(Cl)ccc21)CO3 [Example 251, Methyl N-[(3R,6R,7R,8E,22S)-6′-Chloro-12,12-dimethyl-13,15,15-trioxo-spiro[11,20-dioxa-15-thia-1,14-diazatetracyclo[14.7.2.03,6.019,24]pentacosa-8,16(25),17,19(24)-tetraene-22,1′-tetralin]-7-yl]carbamate] | > 1000 | 1 to 100 | ring closure, yield after HPLC (from C=CCOC(C)(C)C(=O)NS(=O)(=O)c1ccc2c(c1)N(C[C@@H]1CC[C@H]1[C@@H](C=C)NC(=O)OC)C[C@@]1(CCCc3cc(Cl)ccc31)CO2, rcm bond, 16-membered ring, Hoveyda-Grubbs II, DCE, 1.17 mM, 40.0 °C): 18.4%
CC1(C)OC/C=C/[C@](C)(O)[C@@H]2CC[C@H]2CN2C[C@@]3(CCCc4cc(Cl)ccc43)COc3ccc(cc32)S(=O)(=O)NC1=O |  |  | ring closure, yield after HPLC (from C=CCOC(C)(C)C(=O)NS(=O)(=O)c1ccc2c(c1)N(C[C@@H]1CC[C@H]1[C@@](C)(O)C=C)C[C@@]1(CCCc3cc(Cl)ccc31)CO2, rcm bond, 16-membered ring, Zhan catalyst, DCE, 1.6 mM, 45.0 °C, 2.0 h): 3.3%
CN1CCOC(C)(C)C(=O)NS(=O)(=O)c2ccc3c(c2)N(C[C@@H]2CC[C@H]2C1=O)C[C@@]1(CCCc2cc(Cl)ccc21)CO3 [Example 110, (3R,6R,22S)-6′-Chloro-8,12,12-trimethyl-15,15-dioxo-spiro[11,20-dioxa-thia-1,8,14-triazatetracyclo[14.7.2.03,6.019,24]pentacosa-16(25),17,19(24)-triene-22,1′-tetralin]-7,13-dione] | > 1000 | 1 to 100 | ring closure, yield after HPLC (from CNCCOC(C)(C)C(=O)NS(=O)(=O)c1ccc2c(c1)N(C[C@@H]1CC[C@H]1C(=O)O)C[C@@]1(CCCc3cc(Cl)ccc31)CO2, amide bond, 16-membered ring, HATU/DIEA, DMF, 6.0 mM, 20.0 °C, 1.0 h): 25%
O=C1CC/C=C/COC[C@@H]2CC[C@H]2CN2C[C@@]3(CCCc4cc(Cl)ccc43)COc3ccc(cc32)S(=O)(=O)N1 [Example 99, (3R,6R,10E,23S)-6′-Chloro-16,16-dioxo-spiro[8,21-dioxa-16-thia-1,15-diazatetracyclo[15.7.2.03,6.020,25]hexacosa-10,17(26),18,20(25)-tetraene-23,1′-tetralin]-14-one] | > 1000 | 1 to 100 | ring closure, isolated yield ([1]; from C=CCCC(=O)NS(=O)(=O)c1ccc2c(c1)N(C[C@@H]1CC[C@H]1COCC=C)C[C@@]1(CCCc3cc(Cl)ccc31)CO2, rcm bond, 17-membered ring, Hoveyda-Grubbs II, DCM, 16.7 mM, 24.0 h): 51%
O=C1Cc2cncc(c2)OC[C@@H]2CC[C@H]2CN2C[C@@]3(CCCc4cc(Cl)ccc43)COc3ccc(cc32)S(=O)(=O)N1 [Example 104, (3R,6R,24S)-6′-Chloro-17,17-dioxo-spiro[8,22-dioxa-17-thia-1,11,16-triazapentacyclo[16.7.2.19,13.03,6.021,26]octacosa-9(28),10,12,18(27),19,21(26)-hexaene-24,1′-tetralin]-15-one] | > 1000 | < 1 | ring closure, isolated yield ([1]; from NS(=O)(=O)c1ccc2c(c1)N(C[C@@H]1CC[C@H]1COc1cncc(CC(=O)O)c1)C[C@@]1(CCCc3cc(Cl)ccc31)CO2, amide bond, 16-membered ring, EDCI/DMAP, DCM/DMF 9:1, 12.0 mM, 16.0 h): 28%
